Among the data in publication PMC5642494 (Oncotarget, 2017) are IC50 values, retold here.

Each structure is given as a SMILES string. Where two headings read alike, the source gives them in different places.

Common to all, as to assay type: cell-based
One experiment has as its system MCF7 cells. Nature of the experiment: PI high content imaging of G1 arrest and cell proliferation, MCF7. The settings on record: Homo sapiens. Here is the method: (§1) Relative IC50/EC50 values were determined by curve fitting to a four parameter logistic equation: Y = bottom + ((top-bottom)/ (1+exp(HillSlope*(X – LnIC50)), where X is the natural log of dose/concentration, Y is response, decreasing as X increases, top and bottom are plateaus in the same units as Y, lnIC50 is the natural log of potency, in the same log units as X, and HillSlope measures the steepness of the curve. Data were plotted using GraphPad Prism. […]
(§2) Preclinical characterization of abemaciclib in hormone receptor […]
METHODS High content imaging cell-based assays for monitoring phosphorylation of Rb (ser780), G1 arrest and […]
ATP at 20°C by a secondary goat anti-mouse IgG-Alexa Fluor 488 in a 96-well plate filtration assay format. […] Plates were read in an kinase buffer containing 68 mM Hepes at pH 7.5, 6.67 mM Acumen Explorer eX3 (TTP Labtech). […] 10µL of CDK6/cyclin corresponding to 500-530 nm and the percentage of D3 enzyme complex (Millipore 14-519, #D13BP009NA) cells with pRb signal relative to the total PI stained (1 nM final concentration in the assay) was added onto subpopulation was calculated by the instrument’s software a mix of substrate and test compound. […]
(§3) (EDTA) was used to determine the level of background evaluated by measuring PI signal using high content 33P in the absence of enzyme activity. […]

The subject of a further experiment is pRb (Ser780). Description: High content imaging of Rb phosphorylation (Ser780), MCF7. To be noted: Homo sapiens, mean ± Stdev n = 2. Here is the method:
Relative IC50/EC50 values were determined by curve fitting to a four parameter logistic equation: Y = bottom + ((top-bottom)/ (1+exp(HillSlope*(X – LnIC50)), where X is the natural log of dose/concentration, Y is response, decreasing as X increases, top and bottom are plateaus in the same units as Y, lnIC50 is the natural log of potency, in the same log units as X, and HillSlope measures the steepness of the curve. Data were plotted using GraphPad Prism.
As controls, cells were treated with 10 µM palbociclib or vehicle ( 0.2 % v/v DMSO). Additional details for cell-based assays are provided in the Supplemental Methods. […]
(§4) www.impactjournals.com/oncotarget/ Oncotarget Supplementary Materials
as §2
METHODS High content imaging cell-based assays for monitoring phosphorylation of Rb (ser780), G1 arrest and
Enzyme kinetics of CDK6/cyclin D3 complexes Cells were fixed with para-formaldehyde and Rb phosphorylation at Serine 780 was detected using CDK6/cyclin D3 activity was measured by the a primary mouse anti-Rb (PS780) antibody followed phosphorylation of CTRF using [g-33P] […] Plates were read in an kinase buffer containing 68 mM Hepes at pH 7.5, 6.67 mM Acumen Explorer eX3 (TTP Labtech). […]
as §3

The next experiment has as its system MDA-MB-361 cells. Description: PI high content imaging of G1 arrest and cell proliferation, MDA-MB-361. To be noted: Homo sapiens, at least 2 DT. Here is the method: as §1, §4, §2
Enzyme kinetics of CDK6/cyclin D3 complexes Cells were fixed with para-formaldehyde and Rb phosphorylation at Serine 780 was detected using CDK6/cyclin D3 activity was measured by the a primary mouse anti-Rb (PS780) antibody followed phosphorylation of CTRF using [g-33P] […] Plates were read in an kinase buffer containing 68 mM Hepes at pH 7.5, 6.67 mM Acumen Explorer eX3 (TTP Labtech). […] 10µL of CDK6/cyclin corresponding to 500-530 nm and the percentage of D3 enzyme complex (Millipore 14-519, #D13BP009NA) cells with pRb signal relative to the total PI stained (1 nM final concentration in the assay) was added onto subpopulation was calculated by the instrument’s software a mix of substrate and test compound. […]

Setting [1] is: n = 2, read-out: IC50 2n (G1 arrest).
The mark [2] stands for this setting: n = 2, read-out: IC50 Cell number.

As to `CCN1CCN(Cc2ccc(Nc3ncc(F)c(-c4cc(F)c5nc(C)n(C(C)C)c5c4)n3)nc2)CC1` [abemaciclib, Abemaciclib], the IC50 with MCF7 cells (setting [1]) worked out at 54 ± 16 nM; in the experiment with MCF7 cells (setting [2]) it was 369 ± 370 nM; in the experiment with pRb (Ser780), 13 ± 2 nM; in the experiment with MDA-MB-361 cells (setting [1]), 38 ± 2 nM; in the experiment with MDA-MB-361 cells (setting [2]), 45 ± 14 nM.

By IC50 is commonly meant the concentration needed to halve the response being measured.
